# “And” between values parts separate entries of the source, which are not always exact repeats. Identical values can stand only once. Inconclusive results and toxic doses are left out.
# Tested on: CD2F1 mice, L1210 leukemia ip, survival T/C
# Experiment: NCI In Vivo Anticancer Drug Screen. Data for tumor model L1210 Leukemia (intraperitoneal) in CD2F1 (CDF1) mice
# Conditions: higher = longer survival
# Procedure, shortened: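 Implant tumor; dose compound or vehicle; measure endpoint in both groups; report treated divided by control.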
smiles,measurement,setting,value
O=NN(CCCl)C(=O)NCCCl,T/C,"endpoint: mean survival time, dose: 2.0 mg/kg/injection, schedule: Q01DX009 (ip), vehicle: other",177 % of control and 293 % of control
same,T/C,"endpoint: mean survival time, dose: 3.75 mg/kg/injection, schedule: Q01DX001 (ip), vehicle: distilled water + alcohol",115 % of control
same,T/C,"endpoint: mean survival time, dose: 3.75 mg/kg/injection, schedule: Q01DX001 (ip), vehicle: saline + alcohol",114 % of control
same,T/C,"endpoint: mean survival time, dose: 3.8 mg/kg/injection, schedule: Q01DX001 (ip), vehicle: Klucel (hydroxypropylcellulose) (HPC)",150 % of control
same,T/C,"endpoint: mean survival time, dose: 4.0 mg/kg/injection, schedule: Q01DX001 (ip), vehicle: saline + alcohol",113 % of control and 115 % of control
same,T/C,"endpoint: mean survival time, dose: 4.0 mg/kg/injection, schedule: Q01DX009 (ip), vehicle: other",201 % of control and 255 % of control
same,T/C,"endpoint: mean survival time, dose: 4.0 mg/kg/injection, schedule: Q04DX003 (ip), vehicle: saline + alcohol",189 % of control
same,T/C,"endpoint: mean survival time, dose: 5.0 mg/kg/injection, schedule: Q01DX001 (ip), vehicle: saline",113 % of control
same,T/C,"endpoint: mean survival time, dose: 6.25 mg/kg/injection, schedule: Q01DX001 (ip), vehicle: saline + alcohol",119 % of control and 120 % of control
same,T/C,"endpoint: mean survival time, dose: 7.5 mg/kg/injection, schedule: Q01DX001 (ip), vehicle: Klucel (hydroxypropylcellulose) (HPC)",164 % of control
same,T/C,"endpoint: mean survival time, dose: 7.5 mg/kg/injection, schedule: Q01DX001 (ip), vehicle: distilled water + alcohol",123 % of control
same,T/C,"endpoint: mean survival time, dose: 8.0 mg/kg/injection, schedule: Q01DX009 (ip), vehicle: other",183 % of control
same,T/C,"endpoint: mean survival time, dose: 8.0 mg/kg/injection, schedule: Q04DX003 (ip), vehicle: saline + alcohol",230 % of control
same,T/C,"endpoint: mean survival time, dose: 9.4 mg/kg/injection, schedule: Q01DX001 (ip), vehicle: saline + alcohol",156 % of control and 197 % of control
same,T/C,"endpoint: mean survival time, dose: 10.0 mg/kg/injection, schedule: Q01DX001 (ip), vehicle: DMSO",158 % of control
same,T/C,"endpoint: mean survival time, dose: 12.5 mg/kg/injection, schedule: Q01DX001 (ip), vehicle: saline + alcohol",152 % of control and 188 % of control and 212 % of control
same,T/C,"endpoint: mean survival time, dose: 14.0 mg/kg/injection, schedule: Q01DX001 (ip), vehicle: saline",171 % of control
same,T/C,"endpoint: mean survival time, dose: 14.0 mg/kg/injection, schedule: Q07DX003 (ip), vehicle: saline + alcohol",330 % of control
same,T/C,"endpoint: mean survival time, dose: 14.0 mg/kg/injection, schedule: Q11HX001 (ip), vehicle: saline",171 % of control
same,T/C,"endpoint: mean survival time, dose: 14.22 mg/kg/injection, schedule: Q01DX001 (ip), vehicle: saline + alcohol",172 % of control
same,T/C,"endpoint: mean survival time, dose: 15.0 mg/kg/injection, schedule: Q01DX001 (ip), vehicle: Klucel (hydroxypropylcellulose) (HPC)",332 % of control
same,T/C,"endpoint: mean survival time, dose: 15.0 mg/kg/injection, schedule: Q01DX001 (ip), vehicle: saline",172 % of control and 248 % of control
same,T/C,"endpoint: mean survival time, dose: 16.0 mg/kg/injection, schedule: Q01DX001 (ip), vehicle: other",150 % of control
same,T/C,"endpoint: mean survival time, dose: 16.0 mg/kg/injection, schedule: Q04DX003 (ip), vehicle: saline + alcohol",273 % of control
same,T/C,"endpoint: mean survival time, dose: 18.8 mg/kg/injection, schedule: Q01DX001 (ip), vehicle: saline + alcohol",319 % of control
same,T/C,"endpoint: mean survival time, dose: 20.0 mg/kg/injection, schedule: Q01DX001 (ip), vehicle: DMSO",270 % of control
same,T/C,"endpoint: mean survival time, dose: 20.0 mg/kg/injection, schedule: Q01DX001 (ip), vehicle: Klucel (hydroxypropylcellulose) (HPC)",300 % of control
same,T/C,"endpoint: mean survival time, dose: 20.0 mg/kg/injection, schedule: Q01DX001 (ip), vehicle: other",169 % of control
same,T/C,"endpoint: mean survival time, dose: 20.0 mg/kg/injection, schedule: Q11HX001 (ip), vehicle: saline",198 % of control
same,T/C,"endpoint: mean survival time, dose: 21.3 mg/kg/injection, schedule: Q01DX001 (ip), vehicle: saline + alcohol",248 % of control
same,T/C,"endpoint: mean survival time, dose: 25.0 mg/kg/injection, schedule: Q01DX001 (ip), vehicle: saline + alcohol",335 % of control
same,T/C,"endpoint: mean survival time, dose: 30.0 mg/kg/injection, schedule: Q01DX001 (ip), vehicle: distilled water + alcohol",196 % of control
same,T/C,"endpoint: mean survival time, dose: 30.0 mg/kg/injection, schedule: Q01DX001 (ip), vehicle: saline",232 % of control
same,T/C,"endpoint: mean survival time, dose: 30.0 mg/kg/injection, schedule: Q11HX001 (ip), vehicle: saline",232 % of control
same,T/C,"endpoint: mean survival time, dose: 32.0 mg/kg/injection, schedule: Q01DX001 (ip), vehicle: other",246 % of control
same,T/C,"endpoint: mean survival time, dose: 32.0 mg/kg/injection, schedule: Q01DX001 (ip), vehicle: saline",287 % of control
same,T/C,"endpoint: mean survival time, dose: 33.0 mg/kg/injection, schedule: Q07DX003 (ip), vehicle: saline + alcohol",323 % of control
same,T/C,"endpoint: mean survival time, dose: 40.0 mg/kg/injection, schedule: Q01DX001 (ip), vehicle: Klucel (hydroxypropylcellulose) (HPC)",311 % of control
same,T/C,"endpoint: mean survival time, dose: 40.0 mg/kg/injection, schedule: Q01DX001 (ip), vehicle: other",311 % of control
same,T/C,"endpoint: mean survival time, dose: 45.0 mg/kg/injection, schedule: Q01DX001 (ip), vehicle: saline",179 % of control
same,T/C,"endpoint: mean survival time, dose: 45.0 mg/kg/injection, schedule: Q11HX001 (ip), vehicle: saline",180 % of control
same,T/C,"endpoint: mean survival time, dose: 50.0 mg/kg/injection, schedule: Q01DX001 (ip), vehicle: saline + alcohol",291 % of control
same,T/C,"endpoint: mean survival time, dose: 56.25 mg/kg/injection, schedule: Q01DX001 (ip), vehicle: saline + alcohol",252 % of control
same,T/C,"endpoint: mean survival time, dose: 60.0 mg/kg/injection, schedule: Q01DX001 (ip), vehicle: distilled water + alcohol",222 % of control
same,T/C,"endpoint: mean survival time, dose: 80.0 mg/kg/injection, schedule: Q01DX001 (ip), vehicle: saline + alcohol",168 % of control
same,T/C,"endpoint: median survival time, dose: 0.9 mg/kg/injection, schedule: Q01DX009 (ip), vehicle: saline + alcohol",116 % of control and 122 % of control
same,T/C,"endpoint: median survival time, dose: 1.75 mg/kg/injection, schedule: Q01DX009 (ip), vehicle: saline + alcohol",156 % of control
same,T/C,"endpoint: median survival time, dose: 1.8 mg/kg/injection, schedule: Q01DX009 (ip), vehicle: saline + alcohol",169 % of control
same,T/C,"endpoint: median survival time, dose: 3.0 mg/kg/injection, schedule: Q01DX009 (ip), vehicle: saline + alcohol",172 % of control
same,T/C,"endpoint: median survival time, dose: 3.5 mg/kg/injection, schedule: Q01DX009 (ip), vehicle: saline + alcohol",182 % of control and 241 % of control and 246 % of control
same,T/C,"endpoint: median survival time, dose: 5.0 mg/kg/injection, schedule: Q04DX003 (ip), vehicle: saline + alcohol",152 % of control
same,T/C,"endpoint: median survival time, dose: 6.0 mg/kg/injection, schedule: Q01DX009 (ip), vehicle: saline + alcohol",256 % of control
same,T/C,"endpoint: median survival time, dose: 7.0 mg/kg/injection, schedule: Q01DX009 (ip), vehicle: saline + alcohol",218 % of control and 259 % of control
same,T/C,"endpoint: median survival time, dose: 8.0 mg/kg/injection, schedule: Q01DX001 (ip), vehicle: saline + alcohol",153 % of control
same,T/C,"endpoint: median survival time, dose: 10.0 mg/kg/injection, schedule: Q01DX001 (ip), vehicle: Klucel (hydroxypropylcellulose) (HPC)",171 % of control and 197 % of control
same,T/C,"endpoint: median survival time, dose: 10.0 mg/kg/injection, schedule: Q01DX001 (ip), vehicle: saline + alcohol",156 % of control and 178 % of control
same,T/C,"endpoint: median survival time, dose: 10.0 mg/kg/injection, schedule: Q01DX009 (ip), vehicle: saline",176 % of control
same,T/C,"endpoint: median survival time, dose: 10.0 mg/kg/injection, schedule: Q03DX003 (ip), vehicle: DMSO",294 % of control
same,T/C,"endpoint: median survival time, dose: 10.0 mg/kg/injection, schedule: Q04DX003 (ip), vehicle: saline + alcohol",188 % of control
same,T/C,"endpoint: median survival time, dose: 11.5 mg/kg/injection, schedule: Q01DX001 (ip), vehicle: saline + alcohol",165 % of control
same,T/C,"endpoint: median survival time, dose: 12.0 mg/kg/injection, schedule: Q01DX009 (ip), vehicle: saline + alcohol",168 % of control
same,T/C,"endpoint: median survival time, dose: 14.0 mg/kg/injection, schedule: Q01DX009 (ip), vehicle: saline + alcohol",158 % of control and 162 % of control and 185 % of control
same,T/C,"endpoint: median survival time, dose: 14.0 mg/kg/injection, schedule: Q07DX003 (ip), vehicle: saline + alcohol",273 % of control
same,T/C,"endpoint: median survival time, dose: 14.4 mg/kg/injection, schedule: Q01DX001 (ip), vehicle: saline + alcohol",152 % of control and 157 % of control
same,T/C,"endpoint: median survival time, dose: 15.0 mg/kg/injection, schedule: Q01DX009 (ip), vehicle: saline",164 % of control
same,T/C,"endpoint: median survival time, dose: 16.0 mg/kg/injection, schedule: Q01DX001 (ip), vehicle: saline + alcohol",255 % of control
same,T/C,"endpoint: median survival time, dose: 19.2 mg/kg/injection, schedule: Q01DX001 (ip), vehicle: saline + alcohol",192 % of control
same,T/C,"endpoint: median survival time, dose: 20.0 mg/kg/injection, schedule: Q01DX001 (ip), vehicle: Klucel (hydroxypropylcellulose) (HPC)",226 % of control and 234 % of control
same,T/C,"endpoint: median survival time, dose: 24.0 mg/kg/injection, schedule: Q01DX001 (ip), vehicle: saline + alcohol",152 % of control and 186 % of control
same,T/C,"endpoint: median survival time, dose: 24.0 mg/kg/injection, schedule: Q01DX009 (ip), vehicle: saline + alcohol",124 % of control
same,T/C,"endpoint: median survival time, dose: 32.0 mg/kg/injection, schedule: Q01DX001 (ip), vehicle: saline + alcohol",186 % of control
same,T/C,"endpoint: median survival time, dose: 40.0 mg/kg/injection, schedule: Q01DX001 (ip), vehicle: Klucel (hydroxypropylcellulose) (HPC)",343 % of control
same,T/C,"endpoint: median survival time, dose: 40.0 mg/kg/injection, schedule: Q04DX003 (ip), vehicle: saline + alcohol",164 % of control
same,T/C,"endpoint: median survival time, dose: 66.7 mg/kg/injection, schedule: Q01DX001 (ip), vehicle: saline + alcohol",179 % of control and 184 % of control
same,T/C,"endpoint: median survival time, dose: 80.0 mg/kg/injection, schedule: Q01DX001 (ip), vehicle: Klucel (hydroxypropylcellulose) (HPC)",117 % of control
same,T/C,"endpoint: median survival time, dose: 80.0 mg/kg/injection, schedule: Q01DX001 (ip), vehicle: saline",123 % of control
same,T/C,"endpoint: median survival time, dose: 160.0 mg/kg/injection, schedule: Q01DX001 (ip), vehicle: Klucel (hydroxypropylcellulose) (HPC)",168 % of control
O=C1OCCCC1O (stereo unspecified),T/C,"endpoint: mean survival time, dose: 150.0 mg/kg/injection, schedule: Q01DX001 (ip), vehicle: saline",97 % of control
CCN(CC)CCNCc1c[nH]c(=S)[nH]c1=O,T/C,"endpoint: mean survival time, dose: 100.0 mg/kg/injection, schedule: Q04DX003 (ip), vehicle: saline",103 % of control
same,T/C,"endpoint: mean survival time, dose: 200.0 mg/kg/injection, schedule: Q04DX003 (ip), vehicle: saline",97 % of control
same,T/C,"endpoint: mean survival time, dose: 400.0 mg/kg/injection, schedule: Q04DX003 (ip), vehicle: saline",101 % of control
